# From ChEMBL document CHEMBL3259622, “Enhancing a CH-π Interaction to Increase the Affinity for 5-HT1A Receptors” (ACS Med Chem Lett, 2014)
# Calls of active or inactive are those of the source. The calls are words filed in the database; no cut-off is given here.
# How the values were obtained:
# [1] = target: T1, 5-hydroxytryptamine receptor 1A (Homo sapiens, UniProt P08908); assay: Displacement of [3H]-[…] from human recombinant 5HT1A receptor expressed in CHO cells after 60 mins by liquid scintillation counting analysis; assay type: cell-based
# T1 sequence (P08908 whole entry): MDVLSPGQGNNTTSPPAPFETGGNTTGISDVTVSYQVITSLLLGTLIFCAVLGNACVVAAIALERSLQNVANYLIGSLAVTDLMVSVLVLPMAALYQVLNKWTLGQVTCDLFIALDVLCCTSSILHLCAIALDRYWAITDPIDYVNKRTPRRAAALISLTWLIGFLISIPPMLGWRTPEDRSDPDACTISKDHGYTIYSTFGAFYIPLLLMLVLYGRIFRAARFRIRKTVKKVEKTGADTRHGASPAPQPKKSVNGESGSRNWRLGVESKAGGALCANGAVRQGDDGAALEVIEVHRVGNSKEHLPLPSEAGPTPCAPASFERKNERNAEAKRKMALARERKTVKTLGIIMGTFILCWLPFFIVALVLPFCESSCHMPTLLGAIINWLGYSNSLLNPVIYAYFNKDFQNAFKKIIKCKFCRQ
# [2] = target: T2, 5-hydroxytryptamine receptor 1A (Rattus norvegicus, UniProt P19327); assay: Agonist activity at Wistar rat brain 5HT1A receptor assessed as inhibition of firing rate of dorsal raphe nucleus by electrophysiological analysis; assay type: tissue-based
# T2 sequence (P19327 whole entry): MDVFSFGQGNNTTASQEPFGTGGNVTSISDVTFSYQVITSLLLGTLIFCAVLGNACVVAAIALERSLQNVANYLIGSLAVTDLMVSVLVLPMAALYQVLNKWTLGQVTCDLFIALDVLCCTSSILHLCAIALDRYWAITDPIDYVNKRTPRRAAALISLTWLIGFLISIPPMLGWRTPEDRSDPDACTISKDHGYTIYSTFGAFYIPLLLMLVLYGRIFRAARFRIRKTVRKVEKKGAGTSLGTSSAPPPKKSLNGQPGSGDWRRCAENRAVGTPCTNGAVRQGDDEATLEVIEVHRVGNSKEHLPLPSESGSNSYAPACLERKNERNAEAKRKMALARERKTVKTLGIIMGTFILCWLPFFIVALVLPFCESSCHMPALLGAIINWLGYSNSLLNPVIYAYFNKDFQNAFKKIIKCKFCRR
# [3] = target: T3, 5-hydroxytryptamine receptor 1A (Rattus norvegicus) (UniProt P19327); assay: Agonist activity at Wistar rat brain 5HT1A receptor assessed as inhibition of firing rate of dorsal raphe nucleus by electrophysiological analysis in presence of WAY-100635; assay type: tissue-based
# T3 sequence (whole entry): T2 sequence (P19327 whole entry)
# [4] = target: T4, 5-hydroxytryptamine receptor 1A (Homo sapiens) (UniProt P08908); assay: Displacement of [3H]-[…] from human recombinant 5HT1A receptor expressed in CHO cells assessed as residual activity at 1 uM after 60 mins by liquid scintillation counting analysis; assay type: cell-based
# T4 sequence (whole entry): T1 sequence (P08908 whole entry)
Compound,Ki [1] [nM],also measured
O=C(NCCN1CC=C(c2cc(F)cc(F)c2)CC1)c1ccc2ccccc2c1,7.29,
Cc1cc(C)cc(N2CCN(CCNC(=O)c3ccc4ccccc4c3)CC2)c1,21,
Cc1ccc(N2CCN(CCNC(=O)c3cnc4ccccc4n3)CC2)cc1,27.3,
O=C(NCCN1CC=C(c2ccccc2)CC1)c1ccc2ccccc2c1,6.1,
Cc1cc(C)cc(C2=CCN(CCN3C(=O)c4ccccc4C3=O)CC2)c1,105,
O=C(NCCN1CCN(c2ccc(F)cc2)CC1)c1ccc2ccccc2c1,54.3,
Cc1ccc(C2=CCN(CCNC(=O)c3cnc4ccccc4n3)CC2)cc1,7.55,
O=C(NCCN1CC=C(c2cc(F)cc(F)c2)CC1)c1cnc2ccccc2n1,2.62,IC50 [2]: 95 nM; inhibition [3]: inactive
O=C(NCCN1CCN(c2ccc(F)cc2)CC1)c1cnc2ccccc2n1,63.3,
Cc1ccc(C2=CCN(CCNC(=O)c3ccc4ccccc4c3)CC2)cc1,31.6,
O=C(NCCN1CCN(c2ccc(Cl)cc2)CC1)c1cnc2ccccc2n1,27,
O=C(NCCN1CC=C(c2ccc(F)cc2)CC1)c1cnc2ccccc2n1,14,
O=C(NCCN1CCN(c2ccccc2)CC1)c1ccc2ccccc2c1,24.7,
O=C(NCCN1CC=C(c2ccc(F)cc2)CC1)c1ccc2ccccc2c1,33.5,
O=C(NCCN1CC=C(c2ccccc2)CC1)c1cnc2ccccc2n1,3.76,IC50 [2]: 460 nM; inhibition [3]: inactive
Cc1ccc(N2CCN(CCN3C(=O)c4ccccc4C3=O)CC2)cc1,,Activity [4]: 97%
O=C1c2ccccc2C(=O)N1CCN1CCN(c2ccc(F)cc2)CC1,,Activity [4]: 80.4%
O=C1c2ccccc2C(=O)N1CCN1CC=C(c2ccccc2)CC1,706,

Compound,Ki [1] [nM],also measured
O=C(NCCN1CCN(c2cc(F)cc(F)c2)CC1)c1ccc2ccccc2c1,28.9,
O=C(NCCN1CC=C(c2ccc(Cl)cc2)CC1)c1cnc2ccccc2n1,9.3,
O=C1c2ccccc2C(=O)N1CCN1CC=C(c2ccc(F)cc2)CC1,,Activity [4]: 76.8%
O=C1c2ccccc2C(=O)N1CCN1CCN(c2ccc(Cl)cc2)CC1,,Activity [4]: 97.4%
O=C1c2ccccc2C(=O)N1CCN1CCN(c2cc(F)cc(F)c2)CC1,,Activity [4]: 79.6%
Cc1cc(C)cc(N2CCN(CCNC(=O)c3cnc4ccccc4n3)CC2)c1,3.67,IC50 [2]: 383 nM; inhibition [3]: inactive
O=C1c2ccccc2C(=O)N1CCN1CCN(c2ccccc2)CC1,,Activity [4]: 82%
O=C1c2ccccc2C(=O)N1CCN1CC=C(c2ccc(Cl)cc2)CC1,631,
Cc1ccc(N2CCN(CCNC(=O)c3ccc4ccccc4c3)CC2)cc1,221,
O=C(NCCN1CC=C(c2ccc(Cl)cc2)CC1)c1ccc2ccccc2c1,42.5,
Cc1cc(C)cc(C2=CCN(CCNC(=O)c3ccc4ccccc4c3)CC2)c1,8.06,
O=C(NCCN1CCN(c2ccc(Cl)cc2)CC1)c1ccc2ccccc2c1,50.7,
O=C(NCCN1CCN(c2ccccc2)CC1)c1cnc2ccccc2n1,30,IC50 [2]: 1680 nM; inhibition [3]: inactive
Cc1ccc(C2=CCN(CCN3C(=O)c4ccccc4C3=O)CC2)cc1,,Activity [4]: 80%
Cc1cc(C)cc(C2=CCN(CCNC(=O)c3cnc4ccccc4n3)CC2)c1,1.1,IC50 [2]: 172 nM; inhibition [3]: inactive
O=C1c2ccccc2C(=O)N1CCN1CC=C(c2cc(F)cc(F)c2)CC1,425,
O=C(NCCN1CCN(c2cc(F)cc(F)c2)CC1)c1cnc2ccccc2n1,11.1,IC50 [2]: 1140 nM; inhibition [3]: inactive
Cc1cc(C)cc(N2CCN(CCN3C(=O)c4ccccc4C3=O)CC2)c1,496,
